From ChEMBL document CHEMBL1201862, “PubChem BioAssay data set” (2004)
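Step 1: Grow cells in 96-well plates. Step 2: Expose to compound for 48 hours at 5 concentrations. Step 3: Interpolate endpoints linearly; if unreached, use highest concentration. Here, GI50 denotes the concentration required for 50% inhibition of growth.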 The source made the active and inactive calls. Cut-off read from the data, not from the text of the source: active = GI50 up to about 1.1 µM and inactive = higher.

Assays:
Assay in all cases: DTP human tumour cell line panel, 48 h
[1] = tested on: 786-0
[2] = tested on: A549
[3] = tested on: ACHN
[4] = tested on: CAKI-1
[5] = tested on: CCRF-CEM
[6] = tested on: COLO 205
[7] = tested on: DU-145
[8] = tested on: EKVX
[9] = tested on: HCC 2998
[10] = tested on: HCT-116
[11] = tested on: HL-60
[12] = tested on: HOP-62
[13] = tested on: IGROV-1
[14] = tested on: K562
[15] = tested on: KM12
[16] = tested on: LOX IMVI
[17] = tested on: M14
[18] = tested on: MCF7
[19] = tested on: MDA-MB-231
[20] = tested on: MDA-MB-435
[21] = tested on: MDA-N
[22] = tested on: MOLT-4
[23] = tested on: Malme-3M
[24] = tested on: NCI-H226
[25] = tested on: NCI-H23
[26] = tested on: NCI-H460
[27] = tested on: NCI-H522
[28] = tested on: NCI/ADR-RES
[29] = tested on: OVCAR-3
[30] = tested on: OVCAR-4
[31] = tested on: OVCAR-5
[32] = tested on: OVCAR-8
[33] = tested on: PC-3
[34] = tested on: RPMI-8226
[35] = tested on: SF-268
[36] = tested on: SF-295
[37] = tested on: SF-539
[38] = tested on: SK-MEL-28
[39] = tested on: SK-MEL-2
[40] = tested on: SK-MEL-5
[41] = tested on: SK-OV-3
[42] = tested on: SN12C
[43] = tested on: SNB-19
[44] = tested on: SNB-75
[45] = tested on: SR
[46] = tested on: SW-620
[47] = tested on: T47D
[48] = tested on: TK-10
[49] = tested on: UACC-257
[50] = tested on: UACC-62
[51] = tested on: A498
[52] = tested on: HCT-15
[53] = tested on: HT-29
[54] = tested on: Hs-578T
[55] = tested on: U-251
[56] = tested on: UO-31

S=C(NCCc1ccccn1)N/N=C/c1ccccn1
GI50 [1]: 0.0653 µM (active)
GI50 [2]: 0.578 µM (active)
GI50 [3]: < 0.01 µM (active)
GI50 [4]: < 0.01 µM (active)
GI50 [5]: < 0.01 µM (active)
GI50 [6]: < 0.01 µM (active)
GI50 [7]: 1.48 µM (inactive)
GI50 [8]: 0.0243 µM (active)
GI50 [9]: 3.06 µM (inactive)
GI50 [10]: < 0.01 µM (active)
GI50 [11]: < 0.01 µM (active)
GI50 [12]: 0.0149 µM (active)
GI50 [13]: < 0.01 µM (active)
GI50 [14]: < 0.01 µM (active)
GI50 [15]: 0.106 µM (active)
GI50 [16]: < 0.0373 µM (active)
GI50 [17]: 0.0131 µM (active)
GI50 [18]: < 0.01 µM (active)
GI50 [19]: < 0.01 µM (active)
GI50 [20]: 4.09 µM (inactive)
GI50 [21]: 1.91 µM (inactive)
GI50 [22]: < 0.0108 µM (active)
GI50 [23]: 2.62 µM (inactive)
GI50 [24]: 0.0598 µM (active)
GI50 [25]: < 0.01 µM (active)
GI50 [26]: 0.501 µM (active)
GI50 [27]: < 0.01 µM (active)
GI50 [28]: 0.0147 µM (active)
GI50 [29]: < 0.01 µM (active)
GI50 [30]: 0.519 µM (active)
GI50 [31]: < 0.018 µM (active)
GI50 [32]: 0.0489 µM (active)
GI50 [33]: 0.0115 µM (active)
GI50 [34]: < 0.01 µM (active)
GI50 [35]: 0.301 µM (active)
GI50 [36]: 0.964 µM (active)
GI50 [37]: 0.127 µM (active)
GI50 [38]: 1.87 µM (inactive)
GI50 [39]: 0.0457 µM (active)
GI50 [40]: 0.182 µM (active)
GI50 [41]: 1.12 µM (active)
GI50 [42]: 1.11 µM (active)
GI50 [43]: 2.28 µM (inactive)
GI50 [44]: 9.35 µM (inactive)
GI50 [45]: < 0.01 µM (active)
GI50 [46]: < 0.01 µM (active)
GI50 [47]: < 0.01 µM (active)
GI50 [48]: 0.42 µM (active)
GI50 [49]: < 0.0113 µM (active)
GI50 [50]: 0.0841 µM (active)

CSC1=N/C(=C\c2ccc(Cl)cc2)C(=O)N1CN1CCCCC1
GI50 [1]: 42.8 µM (inactive)
GI50 [51]: 17.7 µM (inactive)
GI50 [2]: 42.4 µM (inactive)
GI50 [3]: 25.4 µM (inactive)
GI50 [5]: 26.5 µM (inactive)
GI50 [6]: 60.1 µM (inactive)
GI50 [7]: 89.3 µM (inactive)
GI50 [8]: 16.6 µM (inactive)
GI50 [10]: 37.7 µM (inactive)
GI50 [52]: 25.9 µM
GI50 [12]: 20.4 µM (inactive)
GI50 [53]: 35.6 µM (inactive)
GI50 [54]: 20.7 µM (inactive)
GI50 [13]: 7.38 µM (inactive)
GI50 [14]: 53.7 µM (inactive)
GI50 [15]: 49.5 µM (inactive)
GI50 [16]: 44.7 µM (inactive)
GI50 [17]: 79.1 µM (inactive)
GI50 [18]: 5.33 µM (inactive)
GI50 [19]: 42.1 µM (inactive)
GI50 [20]: 35.9 µM (inactive)
GI50 [21]: 56.8 µM (inactive)
GI50 [22]: 62.7 µM (inactive)
GI50 [23]: 25.5 µM (inactive)
GI50 [24]: > 100 µM (inactive)
GI50 [25]: 64.3 µM (inactive)
GI50 [27]: 27.4 µM (inactive)
GI50 [28]: 54.3 µM (inactive)
GI50 [29]: 34.2 µM (inactive)
GI50 [31]: 99.1 µM (inactive)
GI50 [32]: 37.1 µM (inactive)
GI50 [33]: 35.3 µM (inactive)
GI50 [34]: 37.4 µM (inactive)
GI50 [35]: 27.4 µM (inactive)
GI50 [36]: 35.5 µM (inactive)
GI50 [38]: > 100 µM (inactive)
GI50 [39]: 67.5 µM (inactive)
GI50 [40]: 32.4 µM (inactive)
GI50 [41]: 35.1 µM (inactive)
GI50 [42]: 67.5 µM (inactive)
GI50 [44]: 46.2 µM (inactive)
GI50 [45]: 25 µM (inactive)
GI50 [46]: 34.9 µM (inactive)
GI50 [48]: 31.6 µM (inactive)
GI50 [55]: 47.8 µM (inactive)
GI50 [50]: 65.8 µM (inactive)
GI50 [56]: 23.6 µM (inactive)
